Assay results: US11076597B2, “High stress resistant plant growth regulator and preparation method and use thereof” (SHANGHAI INSTITUTES FOR BIOLOGICAL SCIENCES, CHINESE …, priority 2015, dated 2021)
Like-named read-outs stand apart in the source and are kept apart here.

Key:
[1] = biological target: T1, PYL7 receptor-HAB1 protein phosphatase complex (Arabidopsis thaliana, UniProt Q1ECF1); assay: AlphaScreen assay: promotion of PYL7 receptor binding to PP2C protein phosphatase HAB1
T1 construct: made in house; host or cells: E. coli BL21 (DE3)
T1 sequence (Q1ECF1 1-211): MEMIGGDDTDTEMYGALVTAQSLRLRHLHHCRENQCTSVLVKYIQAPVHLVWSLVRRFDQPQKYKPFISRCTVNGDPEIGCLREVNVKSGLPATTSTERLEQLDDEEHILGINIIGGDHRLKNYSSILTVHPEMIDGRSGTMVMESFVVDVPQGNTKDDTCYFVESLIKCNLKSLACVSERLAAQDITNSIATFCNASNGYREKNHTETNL
T1 sequence (Q9CAJ0 172-511 partner limits assumed): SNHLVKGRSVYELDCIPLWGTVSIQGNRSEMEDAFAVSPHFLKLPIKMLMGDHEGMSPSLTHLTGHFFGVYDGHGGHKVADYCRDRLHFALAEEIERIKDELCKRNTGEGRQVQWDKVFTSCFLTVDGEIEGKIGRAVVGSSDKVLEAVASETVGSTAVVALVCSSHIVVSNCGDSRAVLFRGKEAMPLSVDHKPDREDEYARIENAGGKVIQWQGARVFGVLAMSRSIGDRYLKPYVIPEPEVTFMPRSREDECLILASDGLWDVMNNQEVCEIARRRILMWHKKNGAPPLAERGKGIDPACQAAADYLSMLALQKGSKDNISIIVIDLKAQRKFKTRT
Text: (§1) The construction method of recombinant plasmids for the Arabidopsis thaliana genes PYL1 (amino acid sequence 36-211), PYL2 (amino acid sequence 14-188) with dual tags of 6×His and SUMO sequence and the Arabidopsis thaliana gene HAB1 (amino acid sequence 172-511) with the Biotin tag sequence is described in detail in “A gate-latch-lock mechanism for hormone signaling by abscisic acid receptors” (Nature, Vol 462, 2009). The construction method of recombinant plasmids for PYR1 and PYL7 (whole gene coding sequence) and Soybean GmPYL6 and rice OsPYL2 with dual tags of 6×His and SUMO sequence is the same as that for Arabidopsis PYL2.
(§2) The above recombinant plasmid is transformed into competent cell of E. coli BL21 (DE3) (purchased from NEB company), and inoculated into 200 ml of LB liquid medium containing Amp resistance (purchased from OXOID company) and cultured overnight at 37° C. at 200 rpm; and inoculated into 2 L of LB liquid medium containing Amp resistance at a ratio of 1:50-1:100 for an extended culture, and cultured at 37° C., 200 rpm for 3-4 hours, and at a low temperature of 16° C. until OD600 is about 0.8-1.0. Recombinant plasmids for PYR1/PYL1/PYL2/PYL7/GmPYL6/OsPYL2 with dual tags of 6×His and SUMO sequence were induced overnight with 100 μM of IPTG while HAB1 recombinant plasmid with the Biotin tag sequence was induced simultaneously with 100 μM of IPTG and 40 μM of biotin.
(§3) After 16 hours of induction, the bacterial solution was centrifuged at 4000 rpm for 20 minutes at 4° C. in a low-speed high-capacity centrifuge, and the bacteria cells were collected. Bacteria cells were resuspended in 50 ml of extraction buffer (containing 20 mM Tris, pH 8.0, 200 mM NaCl and 10% (v/v) glycerol) for per 2 L of bacterial solution and then subjected to pressure-breaking at […] and 4° C. for 3-5 times. The broken cells were subjected to ultracentrifugation, centrifuged at 16000 rpm for 30 minutes, and this process was repeated twice. The supernatant was collected and subjected to an affinity chromatography column. […]

[2] = biological target: T2, PYL1 receptor-HAB1 protein phosphatase complex (Arabidopsis thaliana, UniProt Q8VZS8); assay: AlphaScreen assay: promotion of PYL1 receptor binding to PP2C protein phosphatase HAB1
T2 construct: made in house; host or cells: E. coli BL21 (DE3)
T2 sequence (Q8VZS8 36-211): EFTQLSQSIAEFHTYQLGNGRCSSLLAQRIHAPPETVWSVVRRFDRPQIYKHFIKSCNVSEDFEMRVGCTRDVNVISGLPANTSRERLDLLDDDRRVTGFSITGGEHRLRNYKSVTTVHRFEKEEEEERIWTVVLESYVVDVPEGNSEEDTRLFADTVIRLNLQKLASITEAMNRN
T2 sequence (Q9CAJ0 172-511 partner limits assumed): T1 sequence (Q9CAJ0 172-511 partner limits assumed)
Text: as §1, §2, §3

[3] = FIG. 2d, 6×His-SUMO-tagged PYL7 (whole coding sequence), Biotin-tagged HAB1 (aa 172-511), 100 nM each, pH 7.4, 1.5 h room temperature, read-out: EC50
[4] = FIG. 2b, 6×His-SUMO-tagged PYL1 (aa 36-211), Biotin-tagged HAB1 (aa 172-511), 100 nM each, pH 7.4, 1.5 h room temperature, read-out: EC50

CC1=CC(=O)CC(C)(C)[C@@]1(O)/C=C/C(C)=C\C(=O)O [ABA, Abscisic Acid, reference compound]
EC50 [1]: 1160 nM | EC50 [2]: 1200 nM

CCCN1C(=O)OC(C)c2cc(NS(=O)(=O)Cc3c(F)c(F)c(C)c(F)c3F)ccc21 (stereo not drawn) [Compound 0224]
EC50 [1, 3]: 120 nM | EC50 [2, 4]: 149 nM

CCCN1C(=O)OC(C)(C)c2cc(NS(=O)(=O)Cc3c(F)c(F)c(C)c(F)c3F)ccc21 [Compound 0304]
EC50 [1, 3]: 120 nM | EC50 [2, 4]: 167 nM
